US20060240424A1, “Regulation of human p2y15 g protein-coupled receptor” (priority 2002, published 2006)
Where “and” joins values, the source holds several entries; their conditions need not be identical. Equal entries are not always repeated.

Assays:
[1] = biological target: T1, P2Y15 (Homo sapiens, UniProt Q96P68); assay: Calcium mobilization assay in presence of adenosine receptor antagonists; assay type: cell-based; parameters: expressed in transfected cells; details: for block of calcium mobilization induced by AMP and adenosine: FIG. 4, dose-dependent
Protocol: (§1) Ligand screening was performed in a Ca^2+ flux assay as follows. Stably transfected P2Y15 GPCR-expressing cells were seeded into 96-well plates and incubated overnight at 37° C. in a tissue culture incubator. The culture medium was aspirated and replaced with […] of loading buffer containing 0.1% BSA, 20 mM HEPES, 1 mM probenecid, 0.01% pluronic F127, and 1 µM Fluo-3-AM (Molecular Probes, Eugene, Oreg.) in HBSS, and incubated for 1 hour at room temperature. The cells were then washed gently 3 times with wash buffer containing 0.1% BSA, 20 mM HEPES, 1 mM probenecid in HBSS. The washed cells were placed in an FDSS6000 functional drug screening system (Hamamatsu Photonics, Hamamatsu, Japan) and changes in cellular fluorescence were measured after adding serial dilutions of potential ligands. A panel of about 130 potential ligands was assembled by selecting known ligands of the GPCRs most closely related to P2Y15 GPCR as well as several naturally occurring chemical relatives of the ligands. The library included various bioactive lipids, eicosanoids, peptides, cannabinoids, chemokines, nucleosides, nucleotides and chemically related substances. The ligands were genereally purchased from either Sigma or R&D Systems.

[2] = biological target: T1, P2Y15; assay: Cyclic AMP production assay in P2Y15-HEK293 stable transfectants; assay type: cell-based; parameters: expressed in transfected cells; details: for effect of pertussis toxin pretreatment on cyclic AMP production in response to ligand: pretreatment two hours with 1 μM pertussis toxin; for cyclic AMP response to ligand alone: without forskolin
Protocol: (§2) The cells were then lysed and the cAMP produced was measured by a cAMP-specific ELISA. Concentrations of cAMP produced were calculated by comparing against cAMP standards measured simultaneously.

[3] = biological target: T1, P2Y15; assay: Receptor binding assay (saturation binding) on P2Y15 stable transfectants; details: whole cells, 4° C., 16 h; radiolabelled ligand
Protocol: 10^5 cells per well in 96-well plates were washed twice for 1 h with DMEM medium. […] After incubating at 4° C. for 16 h, the plates were centrifuged for 10 min at 1500 rpm and then scintillation measured on a TopCount automated scintillation counter. Binding of [^32P]-AMP was carried out under the same conditions except that instead of using SPA beads, at the end of the incubation, cells were washed three times by vacuum filtration and 100 μl scintillation fluid was added to the wells.

[4] = tested on: nontransfected HEK293 cells; assay: Cyclic AMP production assay in nontransfected HEK293 cells; assay type: cell-based, human; details: 10 μM forskolin
Protocol: as §2

[5] = tested on: nontransfected HEK293 cells; assay: Competitive binding assay on nontransfected HEK293 cells; parameters: species or system human; details: for antagonism of ^3H-AMP binding to nontransfected HEK293 cells: 10 μM ^3H-AMP
Protocol: Competitive binding experiments were carried out as follows: 10^5 cells per well in 96-well plates were washed twice for 1 h with DMEM medium. Then wheatgerm agglutinin SPA beads (Amersham) at 1 mg/well were added, followed 1 h later by 10 μM [^3H]-Adenosine or 10 μM [^3H]-AMP (Amersham), and increasing concentrations of unlabeled ligand in a constant volume of HBS: 10 mM Hepes, 130 mM NaCl, 5 mM KCl, 1 mM MgCl2, 1 mM CaCl2 and 1 g/l glucose (6 μl/well)). After incubating at 4° C. for 16 h, the plates were centrifuged for 10 min at 1500 rpm and then scintillation measured on a TopCount automated scintillation counter. Ki values were determined by non-linear regression using the program Prism (Graph Pad).

[6] = biological target: T2, P2Y15 GPCR (Homo sapiens, UniProt Q96P68); assay: Ca2+ flux assay (ligand screening) in stably transfected P2Y15 GPCR-expressing HEK293 cells; assay type: cell-based; details: FIG. 2A, read-out: calcium response EC50
T2 construct: expressed in transfected cells
Protocol: as §1

[7] = biological target: T1, P2Y15; assay: Competitive binding assay on P2Y15 transfectants; parameters: expressed in transfected cells; details: 10 μM ^3H-adenosine; FIG. 3D; read-out: Ki for blocking binding of ^3H-adenosine to transfectants
Protocol: Competitive binding experiments were carried out as follows: 10^5 cells per well in 96-well plates were washed twice for 1 h with DMEM medium. […] After incubating at 4° C. for 16 h, the plates were centrifuged for 10 min at 1500 rpm and then scintillation measured on a TopCount automated scintillation counter. Ki values were determined by non-linear regression using the program Prism (Graph Pad).

[8] = tested on: nontransfected HEK293 cells; assay: Ca2+ flux assay in nontransfected HEK293 cells (control); assay type: cell-based, human; details: for calcium mobilization in response to nucleotide: both stable transfectants and nontransfected cells (endogenous P2Y1 and P2Y2)
[9] = 10 M AMP (FIG. 4A legend), read-out: Ki for blocking calcium mobilization induced by AMP
[10] = Ki for blocking calcium mobilization induced by adenosine, 10 M adenosine (FIG. 4B legend)

Cn1c(=O)c2[nH]c(-c3ccccc3)nc2n(C)c1=O [8-phenyltheophylline, 8-Phenyltheophylline]
Ki [1, 9]: 0.25 µM
Ki [1, 10]: 0.26 µM

Nc1ncnc2c1ncn2[C@@H]1O[C@H](COP(=O)(O)O)[C@@H](O)[C@H]1O [AMP, Adenosine 5′-monophosphate]
EC50 ([2]; in the presence of 10 μM forskolin, 30 min, FIG. 2B, read-out: generation of cyclic AMP EC50): 0.214 µM
effect of pertussis toxin pretreatment on cyclic AMP production in response to ligand [2]: not affected
cyclic AMP response to ligand alone [2]: only minor responses barely above the detection limit
Kd [3]: 18.6 µM and 18.8 µM
cyclic AMP generation in nontransfected HEK293 cells [4]: did not respond strongly
antagonism of ^3H-AMP binding to nontransfected HEK293 cells [5]: neither AMP nor adenosine can antagonize
blocking ^3H-adenosine binding to nontransfected HEK293 cells ([5]; 10 μM ^3H-adenosine, FIG. 3D): little effect
EC50 [6]: 0.92 µM
Ki [7]: 24.6 µM

Nc1ncnc2c1ncn2[C@@H]1O[C@H](COP(=O)(O)CP(=O)(O)O)[C@@H](O)[C@H]1O [AMP-CP, Adenosine 5′-(α,β-methylene)diphosphate]
block of calcium mobilization induced by AMP and adenosine [1]: effective in blocking

Nc1ncnc2c1ncn2[C@@H]1O[C@H](COP(=O)(O)OP(=O)(O)OP(=O)(O)O)[C@@H](O)[C@H]1O [ATP]
calcium mobilization in response to nucleotide [8]: mobilized calcium

CC(C)Cn1c(=O)n(C)c(=O)c2[nH]cnc21 [IBMX, 3-isobutyl-1 methylxanthine]
block of calcium mobilization induced by AMP and adenosine [1]: able to block

O=c1ccn([C@@H]2O[C@H](COP(=O)(O)OP(=O)(O)OP(=O)(O)O)[C@@H](O)[C@H]2O)c(=O)[nH]1 [UTP]
calcium mobilization in response to nucleotide [8]: mobilized calcium

Nc1ncnc2c1ncn2[C@@H]1O[C@H](CO)[C@@H](O)[C@H]1O [adenosine]
effect of pertussis toxin pretreatment on cyclic AMP production in response to ligand [2]: not affected
cyclic AMP response to ligand alone [2]: only minor responses barely above the detection limit
calcium mobilization response to adenosine in nontransfected cells ([8]; nontransfected HEK293, detected only at very high adenosine concentrations): very weak response
cyclic AMP generation in nontransfected HEK293 cells [4]: generated cyclic AMP
antagonism of ^3H-AMP binding to nontransfected HEK293 cells [5]: neither AMP nor adenosine can antagonize

Cn1c(=O)c2c(ncn2C)n(C)c1=O [caffeine]
Ki [1, 9]: 2.7 µM
Ki [1, 10]: 26.2 µM

Cn1c(=O)c2[nH]cnc2n(C)c1=O [theophylline]
block of calcium mobilization induced by AMP and adenosine [1]: able to block
